Eight compounds from ChEMBL document CHEMBL3132769, “Fragment growing to retain or alter the selectivity of anchored kinase hinge-binding fragments” (Medchemcomm, 2014) can be followed below.

In assay [1] the target is Ribosomal protein S6 kinase alpha-1 (Homo sapiens) (UniProt Q15418). The experiment in a line: Inhibition of human full length RSK1 expressed in baculovirus assessed as substrate phosphorylation using fluorescence-labelled peptides as substrate at 0.2 uM after 90 mins by microfluidic peptide phosphorylation assay.
Assay [2] addresses Mitogen-activated protein kinase kinase kinase kinase 4 (Homo sapiens) (UniProt O95819). Particulars: 0.1 uM.
Description: Inhibition of human HGK catalytic domain expressed in baculovirus assessed as substrate phosphorylation using fluorescence-labelled peptides as substrate at 0.1 uM after 90 mins by microfluidic peptide phosphorylation assay
Assay [3] concerns the target Tyrosine-protein kinase Fyn (Homo sapiens) (UniProt P06241). The assay is described as follows: Inhibition of human full length FYN expressed in baculovirus assessed as substrate phosphorylation using fluorescence-labelled peptides as substrate at 420 uM after 90 mins by microfluidic peptide phosphorylation assay.
Assay [4] addresses RAF proto-oncogene serine/threonine-protein kinase (Homo sapiens) (UniProt P04049). The experiment in a line: Inhibition of human truncated c-Raf expressed in baculovirus assessed as substrate phosphorylation using fluorescence-labelled peptides as substrate at 9 uM after 90 mins by microfluidic peptide phosphorylation assay.
For assay [5], the target named is Tyrosine-protein kinase Fyn (Homo sapiens) (UniProt P06241). The experiment in a line: Inhibition of human full length FYN expressed in baculovirus assessed as substrate phosphorylation using fluorescence-labelled peptides as substrate at 9 uM after 90 mins by microfluidic peptide phosphorylation assay.
Assay [6] is filed under the species Homo sapiens. The assay is described as follows: Inhibition of human full length PKA expressed in baculovirus assessed as substrate phosphorylation using fluorescence-labelled peptides as substrate at 9 uM after 90 mins by microfluidic peptide phosphorylation assay.
Assay [7] concerns the target Aurora kinase B (Homo sapiens) (UniProt Q96GD4). The assay is described as follows: Inhibition of human full length AurB expressed in baculovirus assessed as substrate phosphorylation using fluorescence-labelled peptides as substrate at 9 uM after 90 mins by microfluidic peptide phosphorylation assay.
Assay [8] addresses MAP kinase p38 (Homo sapiens) (UniProt O15264+Q15759+Q16539+P53778). The experiment in a line: Inhibition of human full length p38 beta2 expressed in Escherichia coli cell assessed as substrate phosphorylation using fluorescence-labelled peptides as substrate at […] after 90 mins by microfluidic peptide phosphorylation assay.
The target of assay [9] is Casein kinase I isoform alpha (Homo sapiens) (UniProt P48729). The assay is described as follows: Inhibition of human full length CSNK1A1 expressed in baculovirus assessed as substrate phosphorylation using fluorescence-labelled peptides as substrate at […] after 90 mins by microfluidic peptide phosphorylation assay.
Assay [10] addresses Tyrosine-protein kinase HCK (Homo sapiens) (UniProt P08631). The assay is described as follows: Inhibition of human HCK catalytic domain expressed in baculovirus assessed as substrate phosphorylation using fluorescence-labelled peptides as substrate at 1000 uM after 90 mins by microfluidic peptide phosphorylation assay.
Assay [11] has as its target T1, Serine/threonine-protein kinase Sgk3 (Homo sapiens) (UniProt Q96BR1).
T1 sequence (whole entry): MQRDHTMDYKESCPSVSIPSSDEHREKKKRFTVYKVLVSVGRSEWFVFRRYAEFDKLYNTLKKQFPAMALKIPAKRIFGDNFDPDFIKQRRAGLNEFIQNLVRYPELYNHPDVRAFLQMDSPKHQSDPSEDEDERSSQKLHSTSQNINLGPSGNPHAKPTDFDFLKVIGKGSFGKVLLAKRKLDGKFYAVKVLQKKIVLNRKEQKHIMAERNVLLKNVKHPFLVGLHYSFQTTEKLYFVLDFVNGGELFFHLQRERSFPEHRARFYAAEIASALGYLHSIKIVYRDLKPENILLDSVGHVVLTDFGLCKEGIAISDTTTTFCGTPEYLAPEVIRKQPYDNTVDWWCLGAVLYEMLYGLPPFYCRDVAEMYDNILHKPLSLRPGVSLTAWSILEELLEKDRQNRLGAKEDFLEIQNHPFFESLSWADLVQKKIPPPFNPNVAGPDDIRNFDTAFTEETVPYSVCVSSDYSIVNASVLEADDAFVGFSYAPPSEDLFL
The assay is described as follows: Inhibition of human full length SGK3 expressed in baculovirus assessed as substrate phosphorylation using fluorescence-labelled peptides as substrate at 0.06 uM after 90 mins by microfluidic peptide phosphorylation assay.

The species entered for assay [12] is Homo sapiens. The experiment in a line: Inhibition of human P70S6K catalytic domain expressed in baculovirus assessed as substrate phosphorylation using fluorescence-labelled peptides as substrate at 0.06 uM after 90 mins by microfluidic peptide phosphorylation assay.
Assay [13] has as its target T2, Serine/threonine-protein kinase D3 (Homo sapiens) (UniProt O94806).
T2 sequence (whole entry): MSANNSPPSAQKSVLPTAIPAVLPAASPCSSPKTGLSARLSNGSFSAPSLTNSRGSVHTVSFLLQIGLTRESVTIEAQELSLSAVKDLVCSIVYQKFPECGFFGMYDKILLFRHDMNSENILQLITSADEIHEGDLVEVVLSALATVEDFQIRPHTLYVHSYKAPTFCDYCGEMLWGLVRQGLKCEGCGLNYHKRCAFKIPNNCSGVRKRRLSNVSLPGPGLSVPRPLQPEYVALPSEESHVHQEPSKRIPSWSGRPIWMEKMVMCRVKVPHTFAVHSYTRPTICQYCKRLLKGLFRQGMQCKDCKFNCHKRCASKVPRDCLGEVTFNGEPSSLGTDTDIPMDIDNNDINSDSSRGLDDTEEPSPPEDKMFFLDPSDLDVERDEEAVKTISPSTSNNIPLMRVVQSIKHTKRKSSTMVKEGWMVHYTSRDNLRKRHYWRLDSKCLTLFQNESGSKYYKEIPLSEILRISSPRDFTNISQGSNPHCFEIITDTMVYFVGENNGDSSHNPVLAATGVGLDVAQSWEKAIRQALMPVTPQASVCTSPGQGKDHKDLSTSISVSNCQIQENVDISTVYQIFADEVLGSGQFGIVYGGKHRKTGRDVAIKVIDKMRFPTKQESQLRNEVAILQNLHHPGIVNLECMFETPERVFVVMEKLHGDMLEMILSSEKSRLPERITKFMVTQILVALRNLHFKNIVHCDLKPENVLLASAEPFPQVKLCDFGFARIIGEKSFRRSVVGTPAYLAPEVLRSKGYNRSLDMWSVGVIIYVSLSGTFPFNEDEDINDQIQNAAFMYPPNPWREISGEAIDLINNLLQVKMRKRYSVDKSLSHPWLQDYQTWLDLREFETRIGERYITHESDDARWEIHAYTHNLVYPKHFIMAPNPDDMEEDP
The experiment in a line: Inhibition of human full length PKD3 expressed in baculovirus assessed as substrate phosphorylation using fluorescence-labelled peptides as substrate at 2 uM after 90 mins by microfluidic peptide phosphorylation assay.

As a reminder, the inhibition is the relative decrease from the control value, in per cent.

Sequence of Tyrosine-protein kinase Fyn (Homo sapiens) (P06241 2-537 limits assumed): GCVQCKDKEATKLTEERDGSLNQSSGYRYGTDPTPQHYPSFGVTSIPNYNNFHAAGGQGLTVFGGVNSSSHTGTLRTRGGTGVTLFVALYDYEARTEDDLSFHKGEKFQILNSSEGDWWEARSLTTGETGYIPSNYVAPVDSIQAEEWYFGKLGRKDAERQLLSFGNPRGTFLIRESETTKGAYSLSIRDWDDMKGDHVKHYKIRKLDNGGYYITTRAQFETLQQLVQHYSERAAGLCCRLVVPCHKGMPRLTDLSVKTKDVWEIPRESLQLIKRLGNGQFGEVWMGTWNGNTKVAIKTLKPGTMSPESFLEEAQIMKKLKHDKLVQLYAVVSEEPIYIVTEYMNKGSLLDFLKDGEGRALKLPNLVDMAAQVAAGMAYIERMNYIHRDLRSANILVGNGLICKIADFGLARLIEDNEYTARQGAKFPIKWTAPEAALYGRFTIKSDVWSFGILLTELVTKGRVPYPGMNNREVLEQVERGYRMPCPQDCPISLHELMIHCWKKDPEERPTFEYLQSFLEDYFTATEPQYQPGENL
Sequence of Ribosomal protein S6 kinase alpha-1 (Homo sapiens) (Q15418 whole entry): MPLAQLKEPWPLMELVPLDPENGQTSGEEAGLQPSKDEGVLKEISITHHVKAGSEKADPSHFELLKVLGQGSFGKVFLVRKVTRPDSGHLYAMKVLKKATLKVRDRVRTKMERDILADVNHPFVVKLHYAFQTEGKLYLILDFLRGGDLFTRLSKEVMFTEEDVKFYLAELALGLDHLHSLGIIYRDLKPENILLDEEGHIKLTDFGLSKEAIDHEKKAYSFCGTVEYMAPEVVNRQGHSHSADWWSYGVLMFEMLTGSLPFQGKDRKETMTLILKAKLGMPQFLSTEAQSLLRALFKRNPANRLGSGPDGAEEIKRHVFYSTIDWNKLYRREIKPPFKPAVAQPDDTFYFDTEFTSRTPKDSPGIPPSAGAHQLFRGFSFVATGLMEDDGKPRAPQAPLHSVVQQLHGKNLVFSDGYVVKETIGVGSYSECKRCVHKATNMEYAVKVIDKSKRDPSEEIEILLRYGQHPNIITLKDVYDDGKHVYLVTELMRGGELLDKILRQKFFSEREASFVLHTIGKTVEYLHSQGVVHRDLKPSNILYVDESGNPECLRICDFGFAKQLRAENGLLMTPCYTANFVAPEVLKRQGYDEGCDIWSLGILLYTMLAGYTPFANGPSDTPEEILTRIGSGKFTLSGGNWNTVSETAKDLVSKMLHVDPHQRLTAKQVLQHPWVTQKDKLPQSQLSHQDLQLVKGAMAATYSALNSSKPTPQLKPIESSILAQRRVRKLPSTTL
Sequence of Mitogen-activated protein kinase kinase kinase kinase 4 (Homo sapiens) (O95819 2-1239 limits assumed): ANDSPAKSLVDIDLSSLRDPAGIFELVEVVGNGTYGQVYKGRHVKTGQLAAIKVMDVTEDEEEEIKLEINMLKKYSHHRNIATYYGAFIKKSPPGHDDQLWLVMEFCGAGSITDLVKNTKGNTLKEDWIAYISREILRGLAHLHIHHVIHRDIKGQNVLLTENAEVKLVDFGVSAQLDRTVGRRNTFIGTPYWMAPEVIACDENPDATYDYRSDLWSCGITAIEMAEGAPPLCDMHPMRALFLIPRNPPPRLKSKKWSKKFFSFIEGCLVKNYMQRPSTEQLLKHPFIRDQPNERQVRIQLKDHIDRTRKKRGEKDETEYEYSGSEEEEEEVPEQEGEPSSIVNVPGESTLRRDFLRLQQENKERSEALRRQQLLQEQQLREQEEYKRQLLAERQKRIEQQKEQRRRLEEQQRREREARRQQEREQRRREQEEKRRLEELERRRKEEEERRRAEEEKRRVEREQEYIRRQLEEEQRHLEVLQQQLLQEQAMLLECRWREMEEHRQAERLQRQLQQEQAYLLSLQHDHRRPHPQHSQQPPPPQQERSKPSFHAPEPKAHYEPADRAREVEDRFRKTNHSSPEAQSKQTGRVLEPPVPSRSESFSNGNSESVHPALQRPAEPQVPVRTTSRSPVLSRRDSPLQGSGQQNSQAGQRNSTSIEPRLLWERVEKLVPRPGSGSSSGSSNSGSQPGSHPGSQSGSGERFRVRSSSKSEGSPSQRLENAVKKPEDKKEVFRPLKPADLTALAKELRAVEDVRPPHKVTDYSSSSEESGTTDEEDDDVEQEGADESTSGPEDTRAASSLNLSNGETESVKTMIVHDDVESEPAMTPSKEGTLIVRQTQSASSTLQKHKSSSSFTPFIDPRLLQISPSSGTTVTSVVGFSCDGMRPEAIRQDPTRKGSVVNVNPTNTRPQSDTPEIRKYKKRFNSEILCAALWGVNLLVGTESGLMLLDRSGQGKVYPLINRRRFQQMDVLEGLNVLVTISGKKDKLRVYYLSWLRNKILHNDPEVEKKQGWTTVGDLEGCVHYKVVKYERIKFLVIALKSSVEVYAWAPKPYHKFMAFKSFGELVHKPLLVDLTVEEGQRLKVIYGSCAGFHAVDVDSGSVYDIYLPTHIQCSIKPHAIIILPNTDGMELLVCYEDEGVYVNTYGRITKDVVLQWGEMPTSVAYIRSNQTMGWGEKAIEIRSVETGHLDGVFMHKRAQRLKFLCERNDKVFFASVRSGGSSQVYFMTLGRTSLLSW
Sequence of Tyrosine-protein kinase HCK (Homo sapiens) (P08631 2-526 limits assumed): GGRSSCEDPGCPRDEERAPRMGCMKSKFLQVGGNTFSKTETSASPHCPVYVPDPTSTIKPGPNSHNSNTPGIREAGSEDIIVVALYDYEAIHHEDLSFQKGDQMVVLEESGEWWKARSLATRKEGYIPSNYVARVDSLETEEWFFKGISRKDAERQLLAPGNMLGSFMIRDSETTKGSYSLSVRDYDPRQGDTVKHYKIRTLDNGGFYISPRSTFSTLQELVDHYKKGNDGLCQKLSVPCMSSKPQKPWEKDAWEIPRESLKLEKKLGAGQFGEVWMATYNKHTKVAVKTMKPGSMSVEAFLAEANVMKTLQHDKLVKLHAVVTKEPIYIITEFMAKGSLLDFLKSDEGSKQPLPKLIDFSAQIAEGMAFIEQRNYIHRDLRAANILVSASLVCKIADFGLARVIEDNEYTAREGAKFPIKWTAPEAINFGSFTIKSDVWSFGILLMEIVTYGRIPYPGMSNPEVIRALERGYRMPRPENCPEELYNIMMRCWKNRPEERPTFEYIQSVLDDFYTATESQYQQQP
Sequence of Casein kinase I isoform alpha (Homo sapiens) (P48729 2-337 limits assumed): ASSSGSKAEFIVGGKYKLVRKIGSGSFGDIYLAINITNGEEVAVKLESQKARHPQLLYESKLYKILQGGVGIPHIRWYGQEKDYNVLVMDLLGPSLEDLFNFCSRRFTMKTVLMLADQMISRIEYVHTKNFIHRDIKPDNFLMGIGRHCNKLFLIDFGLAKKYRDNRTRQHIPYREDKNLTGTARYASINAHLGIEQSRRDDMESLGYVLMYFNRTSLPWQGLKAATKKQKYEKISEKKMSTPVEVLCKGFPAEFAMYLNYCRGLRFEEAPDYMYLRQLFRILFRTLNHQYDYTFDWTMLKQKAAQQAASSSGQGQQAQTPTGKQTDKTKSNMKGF
Sequence of RAF proto-oncogene serine/threonine-protein kinase (Homo sapiens) (P04049 whole entry, the tested form may be a part): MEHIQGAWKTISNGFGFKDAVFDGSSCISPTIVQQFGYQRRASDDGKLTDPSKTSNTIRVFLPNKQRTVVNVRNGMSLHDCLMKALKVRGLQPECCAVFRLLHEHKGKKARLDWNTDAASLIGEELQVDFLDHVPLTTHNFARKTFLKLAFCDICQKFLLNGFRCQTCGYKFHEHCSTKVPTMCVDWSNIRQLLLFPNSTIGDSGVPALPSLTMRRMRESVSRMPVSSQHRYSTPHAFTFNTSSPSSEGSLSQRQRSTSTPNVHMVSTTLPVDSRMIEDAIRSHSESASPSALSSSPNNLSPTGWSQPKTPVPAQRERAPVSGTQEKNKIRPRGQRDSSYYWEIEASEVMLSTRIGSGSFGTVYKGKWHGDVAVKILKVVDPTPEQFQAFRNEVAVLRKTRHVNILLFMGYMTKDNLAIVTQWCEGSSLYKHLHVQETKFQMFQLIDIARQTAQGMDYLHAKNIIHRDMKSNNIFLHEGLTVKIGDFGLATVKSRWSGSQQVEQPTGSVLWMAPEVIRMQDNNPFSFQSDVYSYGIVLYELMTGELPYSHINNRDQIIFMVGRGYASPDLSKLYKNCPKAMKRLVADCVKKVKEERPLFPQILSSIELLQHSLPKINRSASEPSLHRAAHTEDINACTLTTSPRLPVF
Sequence of Aurora kinase B (Homo sapiens) (Q96GD4 whole entry): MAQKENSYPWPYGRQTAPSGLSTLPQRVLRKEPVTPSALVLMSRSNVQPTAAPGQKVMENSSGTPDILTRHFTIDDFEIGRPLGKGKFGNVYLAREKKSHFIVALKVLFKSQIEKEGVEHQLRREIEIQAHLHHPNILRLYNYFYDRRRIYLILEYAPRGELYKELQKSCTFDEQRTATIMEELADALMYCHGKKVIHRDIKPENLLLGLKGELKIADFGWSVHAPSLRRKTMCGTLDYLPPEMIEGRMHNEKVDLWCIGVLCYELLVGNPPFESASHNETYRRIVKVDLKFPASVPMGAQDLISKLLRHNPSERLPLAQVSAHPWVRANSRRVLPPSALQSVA

As to `Clc1ccc(C2(c3ccc(-c4ncnc5[nH]cnc45)cc3)CCNCC2)cc1`, the inhibition in assay [1] is 38%.

Consider `C[C@H](CN(C)C)Oc1nc(Nc2cc3cccc(Cl)c3cn2)cnc1C#N`, for which the inhibition in [2] was found to be 0%. In the case of `c1nc(N2CCOCC2)c2nc[nH]c2n1`, in [3], the inhibition stood at 64.5%. Take `NCC1CN(c2ncnc3[nH]c4cnccc4c23)CCO1` (stereo not drawn): the inhibition in assay [4] worked out at 7.5%; in [5], 29.5%; in [6], 33.5%; in assay [7], 31%. With `COC(=O)c1cnc(Nc2cnc(C#N)cn2)cc1NCC1CCNCC1`, the inhibition in assay [8] turned out to be 1%; in assay [9], 2%. For `c1cnc2[nH]ccc2c1`, the inhibition in assay [10] is 30%. `NC1(Cc2ccc(Cl)cc2)CCN(c2ncnc3[nH]ccc23)CC1`: the inhibition was 42.5% in assay [11] and 0% in assay [12]. Consider `NC1CCN(c2ncnc3[nH]ccc23)CC1`, for which, in [13], the inhibition came to 0%.
